# Test results published in patent US7141553B2, “A3AR agonists for the treatment of inflammatory arthritis” (Can-Fite Biopharma Ltd. Israel, priority 2002, dated 2006).
# Read-outs that look alike come from different tables or passages of the source.
# Tests used:
# [1] = test system: patients with active rheumatoid arthritis; test: Clinical trial in humans, effect on rheumatoid arthritis; type: in vivo, human; settings: 0.1, 1 or 4 mg twice daily orally, up to 12 weeks; in at least half of 15 patients
# Source text: Patients with active rheumatoid arthritis were chosen for the study. All chosen patients met the following criteria:
# Rheumatoid arthritis patients that were included in the study, met the following inclusion criteria: • 1. Males and females 18 years of age or older • 2. Functional Class I, II, or III by the criteria of the American College of Rheumatology • 3. Active RA, as indicated by the presence of (a) ≧6 swollen joints; AND (b) ≧29 tender joints; AND at least one of he following: (c) Westergren ESR of ≧28 mm/hour; OR (d) CRP level of >2.0 mg/dL; OR (e) morning stiffness for >45 minutes • 4. History of unsuccessful treatment (documented intolerance or lack of efficacy as determined by the Investigator) with at least 1, but no more than 4, of the following disease modifying anti-rheumatic drugs (DMARDs): methotrexate, hydroxychloroquine, sulfasalazine, oral or injectable gold, azathioprine, leflunomide, minocycline, and penicillamine, alone or in combination Protocol
# Patients included in the study were subjected to a 1 month washout period in which they ceased to take any DMARD. Following this one months washout the patients were administered twice daily with either with 0.1 mg, 1 mg of 4 mg of IB-MECA in a double-blind fashion. […]
# Disease activity was assessed using standard criteria as laid down by the American College of Rheumatology (ACR).
# healthy men [2] = test: Single dose study in healthy men, safety and tolerability; type: in vivo, human; settings: for maximal tolerated dose: once daily administration
# Protocol: (§1) Two clinical studies were carried out: a single dose study and a repeat dose study. Both studies were parallel-group, double-blind, dose-rising, and placebo-controlled in design.
# (§2) In the single dose study, 15 healthy men (3 groups of 5) received a single oral dose of IB-MECA (1, 5 or 10 mg) or placebo. In each group, 1 subject received placebo. In the repeated dose study, 28 healthy men (4 groups of 7) received repeated oral doses of IB-MECA (2, 3, 4 or 5 mg) or placebo every 12 h for 7 days. In each group, 2 subjects received placebo.
# (§3) Healthy young men, aged 18–45 years.
# (§4) In the single dose study, a solution with IB-MECA powder in 30% Cremophor RH40 (BASF) was used. In the repeated dose study, an aqueous 0.5% methylcellulose suspension (Methocel A4M Premium, The Dow Chemical Company) was used. In both studies, the study medication was taken orally as a drink, followed by 50 ml of tap water.
# (§5) The following procedures were done: • Safety assesment: laboratory assessments (routine biochemistry and urinalysis), physical examination, 12-lead ECG, ambulatory ECG, pulmonary function testing (FEV1), vital signs (semi-recumbent in the single dose study; semi-recumbent and standing in the repeat dose study). Adverse events were recorded throughout both studies. • Determination of IB-MECA blood level: in the single dose study blood samples for assay of IB-MECA were taken immediately before and at 0.25, 0.5, 1, 2, 4, 8, 12, 24, and 48 h after dosing; in the repeat dose study—blood samples were taken immediately before and at 0.25, 0.5, 1, 2, 4, 8, and 12 h after dosing on Day 1, before dosing on Days 2–6, and before and at 0.25, 0.5, 1, 2, 4, 8, 12, and 24 h after dosing on Day 7.
# (§6) Data from all subjects who received IB-MECA were included in the analysis of safety and tolerability (adverse events and laboratory safety variables). Numerical data and parameters were summarised using means or medians, and other descriptive statistics, according to the type and distribution of the data.
# [3] = test system: collagen-induced arthritis; settings: 0.5 mg/kg a day; cited from earlier work
# healthy men [4] = test: Repeat dose study in healthy men, safety and tolerability; type: in vivo, human
# Protocol: as §1, §2, §3, §4, §5, §6
# [5] = test system: adjuvant induced arthritis; test: Adjuvant arthritis model in Lewis rats; type: in vivo, rat
# [6] = Single dose study in healthy men, plasma pharmacokinetics; type: in vivo, human
# Protocol: as §2, §4, §5
# Plasma samples were assayed for IB-MECA using LC/MS/MS. The lower limit of quantification (LLOQ) was 0.1 ng/mL. Intra-assay coefficients of variation (CV) were <5.0% and inter-assay CVs were <9.4%.
# Maximum concentration (Cmax) and time to maximum concentration (tmax) were observed values. Other pharmacokinetic parameters (half-life, t^1/2; AUC; and clearance, CL/F) were calculated by non-compartmental methods using WinNonlin® software (version 3.0, Pharsight, Mountain View, Calif., US). Accumulation indices of Cmax and AUC were calculated as ratio of values at steady state (Day 7) to the values on Day 1.
# macrophages = settings: dose dependent; cited from earlier work
# [7] = Human studies, plasma half life (data not shown); type: in vivo
# [8] = single doses 1-10 mg, independent of dose
# [9] = single oral dose 1 mg, mean (SD)
# [10] = single oral dose 5 mg, mean (SD)
# [11] = single oral dose 10 mg, mean (SD)
smiles,measurement,setting,value
"CNC(=O)[C@H]1O[C@@H](n2cnc3c(NCc4cccc(I)c4)ncnc32)[C@H](O)[C@@H]1O [IB-MECA, N6-(3-iodobenzyl)-adenosine-5′-N-methyl-uronamide]",disease symptoms (ACR criteria),[1],significant improvement in disease symptoms
same,change in resting heart rate,"healthy men [2]; after single 5 mg dose, four subjects",small increase in resting heart rate
same,resting heart rate,"healthy men [2]; after single 10 mg dose, 2 subjects, considered drug-related",up to 115 beats/min
same,maximal tolerated dose,healthy men [2],about 5 mg
same,maximal tolerated dose,healthy men [2]; calculated on average human weight of 70 Kg,about 70 micro ram/Kg
same,adverse events within 12 h of dosing,healthy men [2]; single dose of 10 mg,8
same,adverse events within 12 h of dosing,healthy men [2]; single doses of up to 5 mg,no adverse events
same,tolerability,healthy men [2]; single oral doses of up to 5 mg,safe and well tolerated
same,severity of joint inflammation,[3],reduced the severity of joint inflammation
same,safety profile,"healthy men [4]; 2-5 mg every 12 h for 7 days, vital signs, physical examination, FEV1, ECG",acceptable safety profile
same,heart rate,"healthy men [4]; Day 1 of repeated dosing, effect smaller on Day 7",dose-related increase in heart rate
same,tolerability,healthy men [4]; repeat doses of up to 4 mg 12-hourly,safe and well tolerated
same,adverse events within 12 h of dosing,healthy men [4]; repeated doses of 5 mg 12-hourly,13
same,adverse events within 12 h of dosing,healthy men [4]; repeated doses of up to 4 mg 12-hourly,2
same,maximal tolerated dose,healthy men [4]; twice daily administration,4 mg
same,inflammation as assessed by the inflammation intensity score,"[5]; 1 μg/day PO, FIG. 1B",significant reduction
same,histological picture of the joint,"[5]; 10 μg a day, FIG. 3B, untreated shows destruction of synovial tissue and bone",appeared completely normal
same,inflammation as assessed by the inflammation intensity score,"[5]; 10 μg/kg PO a day, treatment from day 7 after disease induction, FIG. 1A",effective in abolishing almost completely the inflammation
same,appearance of paws,"[5]; 10 μg/kg a day PO, untreated rat paws extremely swollen and red",normal appearing paws
same,inflammation as assessed by the inflammation intensity score,"[5]; 100 μg/kg PO a day, treatment from day 7 after disease induction, FIG. 1A",effective in abolishing almost completely the inflammation
same,plasma level (Cmax),[6]; single daily dose of 5 mg and twice daily dose of 4 mg,< 80 ng/mL
same,Cmax,"[6]; single daily dose of 5 mg and twice daily dose of 4 mg, read-out: plasma level (Cmax)",< 160 nM
same,tmax,[6]; single doses 1-10 mg,1 to 2 h
same,apparent plasma clearance (CL/F),[6]; [8],4 to 7 L/h
same,half-life,[6]; [8],about 8.5 h
same,AUC(0–48),[6]; [9],220.7 ng·h/mL
same,AUC(inf),[6]; [9],225.2 (21.7) ng · h/mL
same,CL/F,[6]; [9],4.5 (0.4) L/h
same,t1/2,[6]; [9],8.7 (0.7) h
same,Cmax,"[6]; single oral dose 1 mg, mean (SD), n=4",21.2 ng/mL
same,tmax,"[6]; single oral dose 1 mg, median (range)",1 (1–2) h
same,AUC(0–48),[6]; [10],872.3 ng·h/mL
same,AUC(inf),[6]; [10],904.0 (221.9) ng · h/mL
same,CL/F,[6]; [10],5.8 (1.4) L/h
same,t1/2,[6]; [10],8.3 (0.2) h
same,Cmax,"[6]; single oral dose 5 mg, mean (SD), n=4",81.6 ng/mL
same,tmax,"[6]; single oral dose 5 mg, median (range)",1 (1–2) h
same,AUC(0–48),[6]; [11],1780.0 ng·h/mL
same,AUC(inf),[6]; [11],1813.0 (226.5) ng · h/mL
same,CL/F,[6]; [11],5.6 (0.7) L/h
same,t1/2,[6]; [11],8.6 (0.4) h
same,Cmax,"[6]; single oral dose 10 mg, mean (SD), n=4",178.0 ng/mL
same,tmax,"[6]; single oral dose 10 mg, median (range)",1 (1–2) h
same,production of MIP-1α in macrophages,macrophages,suppresses the production of MIP-1α
same,"production of the cytokines IL-1, IL-2, IL-6 as well as NO",macrophages,"inhibit, also in a dose dependent manner"
same,half life in human plasma,[7],8 to 10 h
